Consider five compounds from patent US20100212036A1, “SELECTIVE INHIBITION OF HISTONE DEACETYLASES 1 AND 2 AS A TREATMENT FOR CARDIAC HYPERTROPHY” (priority 2008, published 2010).

The subject of one test is cardiomyocytes. The following applies: treatment of cardiomyocytes with HDAC inhibitors; cited from earlier work.
Another test relates to PPARα-responsive genes. In words: Real-time RT-PCR of PPARα target genes in hearts of wild-type and HDAC3cKO mice after Wy14,643. The following applies: 50 mg/kg single intraperitoneal injection. The test is classed as in vivo. How it is done: FIGS. 5A-E. Aberrant expression of cardiac metabolism genes from cardiac deletion of HDAC3. (FIG. 5A) Microarray analysis was performed at 5 weeks and gene ontology analysis was performed with PANTHER. […] (FIG. 5B) PPAR-regulated mitochondrial uncoupling genes are increased in HDAC3cKO mice. […] (FIG. 5E) Glucose metabolism is decreased in HDAC3cKO hearts. For (FIGS. 5B-E), real-time RT-PCR was performed from LV RNA of 6-week-old wild-type and HDAC3cKO mice in absence or presence of Wy14,643. Transcript levels were normalized to 18S Ribosomal RNA. KO, HDAC3cKO. Error bars represent standard deviation.
RT-PCR and microarray. For all gene expression analyses from wild-type and HDAC3cKO mice, 4 wild-type and 4 HDAC3cKO hearts were isolated and analyzed. Total RNA was purified using TRIzol reagent according to manufacturer's instructions. For RT-PCR, total RNA was used for reverse transcriptase using random hexamer primers. Primer sequences are available upon request. Quantitative real time PCR was performed using Taqman probes purchased from ABI. For microarray, RNA was extracted from either 3 wild-type or HDAC3cKO hearts and subsequently pooled prior to analysis. Microarray analysis was performed using the Mouse Genome 430 2.0 Array (Affymetrix). All heart RNA was from ventricle tissue only. Microarray analysis was performed by the UT Southwestern Microarray Core Facility using the Mouse Genome 430 2.0 Array (Affymetrix) as described (Davis et al., 2006)
Animal studies. For fasting studies, male HDAC3cKO and wild-type littermates were fasted for 24 hrs. After 24 hrs, mice were sacrificed, hearts extracted, and prepared for Oil Red O staining. Control mice were allowed standard chow ad libitum. Wy14,643 (Biomol) (50 mg/kg body weight) in 50% DMSO/saline was administered as a single intraperitoneal injection. Control littermates were administered vehicle and hearts were extracted 8 hrs after injection. All animal studies were approved by the IACUC of the University of Texas Southwestern Medical Center.
(In general: Quantitative PCR measures a nucleic acid by following its amplification.)

Another test deals with HDAC3. As to the kind of experiment: HDAC3 expression in settings of hypertrophy and failure. The test is classed as in vivo. The following applies: following infusion; data not shown.
The mark [1] stands for this setting: hearts 8 hrs after injection, vs baseline.
Setting [2] is: HDAC3cKO mice, LV RNA, hearts extracted 8 hrs after injection, vs baseline.

As for `CC(/C=C/C(=O)NO)=C\[C@@H](C)C(=O)c1ccc(N(C)C)cc1` [TSA], in the test with cardiomyocytes, the “activation of the fetal gene program” value is listed as “dose-dependentle block activation” and the hypertrophic response entry is listed as “block the hypertrophic response”.
On to `CCCC(CCC)C(=O)O` [VPA], for which, in the test on cardiomyocytes, the “activation of the fetal gene program” value is on record as “dose-dependentle block activation” and the hypertrophic response entry is “block the hypertrophic response”.
Take `Cc1cccc(Nc2cc(Cl)nc(SCC(=O)O)n2)c1C` [Wy14,643]: in the test on PPARα-responsive genes (setting [1]), the CD36 transcript level result was “up-regulated”, the “FACS (Acsl1) transcript level” value is “up-regulated” and the “FATP (Slc27a1) transcript level” value is on record as “up-regulated”. The “ACOX (acyl-CoA oxidase 1) expression” value in the test on PPARα-responsive genes (HDAC3cKO hearts) is on record as “further up-regulated”. For the same compound, in the test with PPARα-responsive genes (HDAC3cKO mice), the GLUT4 expression entry is “further decreased” and the PDK4 expression entry is on record as “further elevated”. In addition, in the test with PPARα-responsive genes (setting [2]), the UCP2 transcript level result is “induction was increased” and the UCP3 transcript level result was “induction was increased”. Also, the mCPT-1 transcript levels result in the test on PPARα-responsive genes (wild-type or HDAC3cKO hearts) is recorded as “had no effect”.
Take `CC(C)NCC(O)c1ccc(O)c(O)c1` (stereo not drawn) [isoproterenol]: the HDAC3 expression levels result in the test with HDAC3 is “decreased”.
On the same count and under the same terms, then angiotensin, with “not significantly altered”.
